Measurements: PMC9977398, “Next-generation membrane-active glycopeptide antibiotics that also inhibit bacterial cell division” (Chemical Science, 2023)

Legend:
[1] = test system: ΔamiAC MG1655 E. coli; test: Antibacterial activity against ΔamiAC MG1655 E. coli; format: cell-based; details: LB media, 18 h
Procedure: The bacterial amidases help cleave the septum in the final stage of cell division to produce daughter cells.[39] In the absence of amidases, chains of unseparated cells are formed (Fig. 5D). These retain distinct cytoplasmic compartments but share an outer membrane.[39] These cells are known to be hypersensitive to antibiotics and detergents. However, ΔamiAC mutations are resistant to killing by cephalexin.[38] The MIC of VanQAmC10 against the ΔamiAC mutant was reduced to 4 μM, while that of vancomycin was >10 μM. […] This is indicative of impaired cell division. Cell debris due to lysis after compound treatment are also visible. […]
resuspended in prewarmed BMM media. 1:1 BAC light dye was then added to the bacterial suspension and incubated for 5 minutes. The fluorescence in the GFP and Texas red channels was then observed under the microscope. The experiments were performed three times independently and the images are representative of results from three independent experiments. […]
(§1) About 6 μl of sample was immobilized on 1% agarose pad . DIC and fluorescence images were obtained at different time intervals using Nikon Eclipse Ti Microscope equipped with Nikon DS-U3 camera through Plan Apo 100×/1.40 oil objective. […]
from 10 μg/mL. The bacteria with compounds and untreated control were incubated for 18 h at 37 ̊C under shaking and OD600 was measured. […]

[2] = test system: B. subtilis 1981 GFP-MinD; test: GFP-MinD localization; format: cell-based; details: treatment at the PEC, 15 min
Excerpt: MinD is a peripheral membrane protein that localizes at the cell poles and is part of the cell division regulation machinery. It has been reported that treatment with membrane-depolarizing agents like valinomycin results in the delocalization of the protein which appears in irregularly distributed spots throughout the cell. Since the compounds depolarise the bacterial membrane, their effect on the localization of the GFP-tagged MinD protein of B. subtilis was investigated. […]
resuspended in prewarmed BMM media. 1:1 BAC light dye was then added to the bacterial suspension and incubated for 5 minutes. The fluorescence in the GFP and Texas red channels was then observed under the microscope. The experiments were performed three times independently and the images are representative of results from three independent experiments.
B. subtilis 1981 GFP-MinD was cultured overnight in BMM.8 Cells were then inoculated in xylose containing BMM instead of glucose to an OD500 of 0.1 to induce expression of the GFP-MinD fusion protein. […]
as §1

[3] = test system: VRSA; test: Time-kill kinetics against VRSA; format: cell-based, S. aureus
[4] = test system: wild-type E. coli; test: Light microscopy of wild-type E. coli (lysis); format: cell-based; details: VanQAmC10 25 μM, vancomycin 34 μM (Fig. 5A)
Procedure: Over 240 minutes, E. coli treated with VanQAmC10 (at 25 μM), gradually grow bulky before finally lysing (ESI Video ^†). It punctured the cell, causing the cytoplasm to leak out as extrusions on the surface of the bacteria after which the cells flattened and disintegrated.
Fig. 5 Examination of E. coli cells treated with vancomycin, cephalexin and VanQAmC10 to study the effect on bacterial membrane integrity and cell division. (A) Light microscopy of wild-type E. coli upon treatment with vancomycin (34 μM), and VanQAmC10 (25 μM); (B) light and fluorescence microscopy in GFP-FtsZ expressing E. coli to assess morphological changes and localization of FtsZ post-treatment with VanQAmC10 (15 μM) for 40 min; (C) delocalization of GFP-FtsI in GFP-FtsI expressing E. coli through fluorescence microscopy and morphological changes through light microscopy upon treatment with vancomycin (34 μM), cephalexin (22 μM) and VanQAmC10 (10 μM); (D) light microscopy to assess morphological changes in E. coli MG1655 ΔamiAC mutant, when untreated and treated with vancomycin (3 μM) and VanQAmC10 (2 μM). Black arrows indicate morphological aberrations.

SMILES	MIC against the ΔamiAC mutant [1]	localization of GFP-MinD [2]	increase in bacterial titer between 6 h and 24 h ([3]; VRSA, 2×MIC, after initial reduction)	time to complete eradication ([3]; VRSA, 6×MIC)	reduction of bacterial titer ([3]; VRSA, at MIC, 24 h)	effect on E. coli cells (microscopy) [4]	effect on growth of VRSA ([3]; 20 μM (sub-MIC))
CCCCCCCCCCNC(=O)C[N+](C)(C)CCCNC(=O)C1NC(=O)C2NC(=O)C(NC(=O)C3NC(=O)C(CC(N)=O)NC(=O)C(NC(=O)C(CC(C)C)NC)C(O)c4ccc(c(Cl)c4)Oc4cc3cc(c4OC3OC(CO)C(O)C(O)C3OC3CC(C)(N)C(O)C(C)O3)Oc3ccc(cc3Cl)C2O)c2ccc(O)c(c2)-c2c(O)cc(O)cc21 (stereo not shown) [VanQAmC10 (8)]	4 µM	irregular distribution of GFP-labelled MinD across the cells	1 log CFU mL^−1	24 h	1.9 log CFU mL^−1	completely lysed the cells	
CNC(CC(C)C)C(=O)NC1C(=O)NC(CC(N)=O)C(=O)NC2C(=O)NC3C(=O)NC(C(=O)NC(C(=O)NCCC[N+](C)(C)Cc4ccc(-c5ccccc5)cc4)c4cc(O)cc(O)c4-c4cc3ccc4O)C(O)c3ccc(c(Cl)c3)Oc3cc2cc(c3OC2OC(CO)C(O)C(O)C2OC2CC(C)(N)C(O)C(C)O2)Oc2ccc(cc2Cl)C1O (stereo not shown) [VanQbiph (4)]		irregular distribution of GFP-labelled MinD across the cells					
CN[C@H](CC(C)C)C(=O)N[C@H]1C(=O)N[C@@H](CC(N)=O)C(=O)N[C@H]2C(=O)N[C@H]3C(=O)N[C@H](C(=O)N[C@H](C(=O)O)c4cc(O)cc(O)c4-c4cc3ccc4O)[C@H](O)c3ccc(c(Cl)c3)Oc3cc2cc(c3O[C@@H]2O[C@H](CO)[C@@H](O)[C@H](O)[C@H]2O[C@H]2C[C@](C)(N)[C@H](O)[C@H](C)O2)Oc2ccc(cc2Cl)[C@H]1O [Vancomycin, reference compound]	> 10 µM					did not affect the cells	initial growth inhibitory effect, followed by resumption of bacterial growth
